The results in this text go back to patent US9150566B2, “2-(1,2,3-triazol-2-yl)benzamide and 3-(1,2,3-triazol-2-YL)picolinamide derivatives as orexin receptor antagonists” (ACTELION PHARMACEUTICALS LTD., priority 2011, dated 2015).

The structures appear in SMILES notation. Read-outs that look alike come from different tables or passages of the source.

In series [1] the target is human orexin-1 receptor (Homo sapiens (Human), UniProt O43613). Briefly: In vitro intracellular calcium measurements (FLIPR), antagonistic activity on orexin-1 receptor. The class given is cell-based. Conditions: read-out: IC50 OX1. On the procedure: (§1) In Vitro Assay: Intracellular Calcium Measurements:
(§2) Chinese hamster ovary (CHO) cells expressing the human orexin-1 receptor and the human orexin-2 receptor, respectively, are grown in culture medium (Ham F-12 with L-Glutamine) containing 300 μg/mL G418, 100 U/mL penicillin, 100 μg/mL streptomycin and 10% heat inactivated fetal calf serum (FCS). The cells are seeded at 20′000 cells/well into 384-well black clear bottom sterile plates (Greiner). The seeded plates are incubated overnight at 37° C. in 5% CO2.
(§3) Within the Fluorescent Imaging Plate Reader (FLIPR Tetra, Molecular Devices), antagonists are added to the plate in a volume of 10 μL/well, incubated for 120 min and finally 10 μL/well of agonist is added. Fluorescence is measured for each well at 1 second intervals, and the height of each fluorescence peak is compared to the height of the fluorescence peak induced by 3 nM orexin-A with vehicle in place of antagonist. […] Optimized conditions were achieved by adjustment of pipetting speed and cell splitting regime. The calculated IC50 values may fluctuate depending on the daily cellular assay performance. Fluctuations of this kind are known to those skilled in the art.

Series [2] concerns the target human orexin-2 receptor (Homo sapiens (Human), UniProt O43614). Briefly: In vitro intracellular calcium measurements (FLIPR), antagonistic activity on orexin-2 receptor. The class given is cell-based. Conditions: read-out: IC50 OX2. On the procedure: as §1, §2, §3
In general terms: Calcium flux is commonly read through the fluorescence of an indicator in the cells.

Series [3] has as its target CYP3A4 (Homo sapiens (Human), UniProt P08684). Briefly: CYP3A4 inhibition assay (human liver microsomes, testosterone 6β-hydroxylation). Conditions: read-out: CYP3A4 IC50, 40 μM testosterone. On the technique in general: Liver microsomes are vesicles of endoplasmic reticulum, rich in cytochrome P450 enzymes.
Method: The CYP3A4 inhibition assay was performed using human liver microsomes and testosterone 6β-hydroxylation as a P450 isoform-specific marker. In a total volume of 150 μL, ^14C-testosterone at a final concentration of 40 μM in a 100 mM phosphate buffer (pH 7.4) was incubated in a 96-well plate with 0.3 mg/mL of human liver microsomes in an Eppendorf thermomixer at 37° C. and 400 rpm. […] The reaction was initiated by addition of 15 μL of the NADPH-regenerating system containing the glucose-6-phosphate dehydrogenase and terminated after 7 min with a 75 μL-aliquot of methanol. After centrifugation at 465 g and 4° C. for 20 min, a 50 μL-aliquot of the supernatant was submitted to HPLC according to the method described below. The total concentration of DMSO in the assay including controls without inhibitor was 1%.
Nicardipine was run in parallel as a reference inhibitor of CYP3A4 activity at final concentrations of 0, 0.1, 0.5, 1.0, 5.0, 10, 25, and 50 μM. Stock solutions thereof were prepared in DMSO.
The chromatographic separation of testosterone and 6β-hydroxytestosterone was achieved on a Phenomenex Luna C18(2) column (5 μm, 2.0×10 mm) at RT with a flow rate of 0.6 mL/min. Mobile phases consisted of 1% aqueous formic acid (phase A) and methanol (phase B) using a gradient method with 0.9 min total run time.
The quantification of 6β-hydroxytestosterone was carried out using a quadrupole mass spectrometer equipped with an ionspray interface operating in positive ion mode. The parameters of the mass detector were set as follows: capillary voltage 5 kV, auxiliary gas 40 psi, collision gas 3 mTorr, and transfer capillary temperature 420° C.
Setting [4] is: CHO cells expressing human orexin-1 receptor, FLIPR, 3 nM orexin-A agonist, 120 min antagonist incubation, geometric mean if determined several times.
[5] abbreviates: CHO cells expressing human orexin-2 receptor, FLIPR, 3 nM orexin-A agonist, 120 min antagonist incubation, geometric mean if determined several times.

Chain of human orexin-2 receptor (O43614 whole entry): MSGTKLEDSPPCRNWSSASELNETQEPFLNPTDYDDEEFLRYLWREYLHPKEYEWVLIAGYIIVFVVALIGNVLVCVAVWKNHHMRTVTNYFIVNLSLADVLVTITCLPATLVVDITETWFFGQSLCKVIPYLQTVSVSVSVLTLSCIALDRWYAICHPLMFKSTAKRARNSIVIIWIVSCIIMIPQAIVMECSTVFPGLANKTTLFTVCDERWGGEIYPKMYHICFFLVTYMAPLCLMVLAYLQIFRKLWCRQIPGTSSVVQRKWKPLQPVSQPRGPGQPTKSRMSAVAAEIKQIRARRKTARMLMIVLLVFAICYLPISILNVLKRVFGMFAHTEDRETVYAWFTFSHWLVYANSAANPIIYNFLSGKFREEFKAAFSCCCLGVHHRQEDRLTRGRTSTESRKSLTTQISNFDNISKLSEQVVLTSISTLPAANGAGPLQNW
Chain of human orexin-1 receptor (O43613 whole entry): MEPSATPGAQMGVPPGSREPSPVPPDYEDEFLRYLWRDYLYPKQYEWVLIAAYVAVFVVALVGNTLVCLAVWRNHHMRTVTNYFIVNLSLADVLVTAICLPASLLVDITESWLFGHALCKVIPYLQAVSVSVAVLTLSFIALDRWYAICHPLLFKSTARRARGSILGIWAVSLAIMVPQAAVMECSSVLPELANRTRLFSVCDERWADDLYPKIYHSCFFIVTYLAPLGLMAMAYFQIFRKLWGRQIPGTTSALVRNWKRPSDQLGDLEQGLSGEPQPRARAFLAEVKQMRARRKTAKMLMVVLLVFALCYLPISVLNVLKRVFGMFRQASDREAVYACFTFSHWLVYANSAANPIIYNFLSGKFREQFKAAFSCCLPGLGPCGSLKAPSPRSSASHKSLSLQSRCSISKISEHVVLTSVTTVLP
Chain of CYP3A4 (P08684 whole entry): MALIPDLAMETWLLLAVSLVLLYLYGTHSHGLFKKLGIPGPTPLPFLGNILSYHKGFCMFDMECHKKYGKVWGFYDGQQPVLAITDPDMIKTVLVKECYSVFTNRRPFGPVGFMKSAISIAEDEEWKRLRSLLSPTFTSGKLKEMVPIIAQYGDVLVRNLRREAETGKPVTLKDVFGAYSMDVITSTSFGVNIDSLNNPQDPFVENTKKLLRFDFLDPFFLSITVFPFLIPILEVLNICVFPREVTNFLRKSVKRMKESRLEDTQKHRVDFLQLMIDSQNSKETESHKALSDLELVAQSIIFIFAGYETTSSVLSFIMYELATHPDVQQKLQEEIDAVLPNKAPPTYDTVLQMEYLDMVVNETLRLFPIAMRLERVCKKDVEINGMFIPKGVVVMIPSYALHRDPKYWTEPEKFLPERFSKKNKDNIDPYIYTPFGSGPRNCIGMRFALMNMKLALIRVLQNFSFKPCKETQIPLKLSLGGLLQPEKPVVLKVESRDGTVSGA

On to `Cc1ccc(-n2nccn2)c(C(=O)N2CCOC[C@H]2Cc2ccc(C)c(-n3nccn3)c2)c1` [Example 65, [(R)-3-(4-Methyl-3-[1,2,3]triazol-2-yl-benzyl)-morpholin-4-yl]-(5-methyl-2-[1,2,3]triazol-2-yl-phenyl)-methanone], for which the IC50 (usually the concentration at which inhibition is half-maximal) in series [1] (setting [4]) is 2 nM; in series [2] (setting [5]) it was 261 nM; in series [3] it was 22 µM.
For `O=C(c1ccccc1-n1nccn1)N1CCOC[C@H]1Cc1cc(-n2nccn2)ccc1F` [Example 57, [(R)-3-(2-Fluoro-5-[1,2,3]triazol-2-yl-benzyl)-morpholin-4-yl]-(2-[1,2,3]triazol-2-yl-phenyl)-methanone], the IC50 stood at 48 nM in series [1] (setting [4]), 2740 nM in series [2] (setting [5]) and 20 µM in series [3].
For `O=C(c1cccc(Cl)c1-n1nccn1)N1CCOC[C@H]1Cc1cccc(-n2nccn2)c1` [Example 107, (3-Chloro-2-[1,2,3]triazol-2-yl-phenyl)-[(R)-3-(3-[1,2,3]triazol-2-yl-benzyl)-morpholin-4-yl]-methanone] the same measures were 5 nM, 435 nM and 22 µM.
For `Cc1ccc(-n2nccn2)c(C(=O)N2CCOC[C@H]2Cc2cccc(-n3nccn3)c2)n1` [Example 52, (6-Methyl-3-[1,2,3]triazol-2-yl-pyridin-2-yl)-[(R)-3-(3-[1,2,3]triazol-2-yl-benzyl)-morpholin-4-yl]-methanone], in that order: 43 nM, 1630 nM and more than 50 µM.
For `COc1ccc(C[C@@H]2COCCN2C(=O)c2ccc(C)cc2-n2nccn2)cc1-c1ncon1` [Example 60, [(R)-3-(4-Methoxy-3-[1,2,4]oxadiazol-3-yl-benzyl)-morpholin-4-yl]-(4-methyl-2-[1,2,3]triazol-2-yl-phenyl)-methanone] the same measures were 0.7 nM, 34 nM and 41 µM.
`O=C(c1ccccc1-n1nccn1)N1CCOC[C@H]1Cc1cccc(-c2ncco2)c1` [Example 42, [(R)-3-(3-Oxazol-2-yl-benzyl)-morpholin-4-yl]-(2-[1,2,3]triazol-2-yl-phenyl)-methanone]: the IC50 in series [1] (setting [4]) came out at 34 nM; in series [2] (setting [5]) it was 2010 nM; in series [3], 5.1 µM.
Consider `Cc1ccc(-n2nccn2)c(C(=O)N2CCC[C@H]2Cc2cccc(-n3nccn3)c2)c1` [Ref. 2], for which the IC50 in series [1] (setting [4]) stood at 0.5 nM; in series [2] (setting [5]), 8 nM; in series [3], 3.3 µM.
For `Cc1ccc(C[C@@H]2COCCN2C(=O)c2ccccc2-n2nccn2)cc1-n1nccn1` [Example 66, [(R)-3-(4-Methyl-3-[1,2,3]triazol-2-yl-benzyl)-morpholin-4-yl]-(2-[1,2,3]triazol-2-yl-phenyl)-methanone], in that order: 16 nM, 992 nM and 36 µM.
For `COc1ccc(C[C@@H]2COCCN2C(=O)c2ccccc2-n2nccn2)cc1-c1ccccn1` [Example 3, [(R)-3-(4-Methoxy-3-pyridin-2-yl-benzyl)-morpholin-4-yl]-(2-[1,2,3]triazol-2-yl-phenyl)-methanone], in that order: 4 nM, 3340 nM and 21 µM.
For `COc1ccc(C[C@@H]2COCCN2C(=O)c2ccccc2-n2nccn2)cc1-c1cccnc1` [Example 4, [(R)-3-(4-Methoxy-3-pyridin-3-yl-benzyl)-morpholin-4-yl]-(2-[1,2,3]triazol-2-yl-phenyl)-methanone] the same measures were 6 nM, 1880 nM and 1.2 µM.
On to `Cc1ccc(-n2nccn2)c(C(=O)N2CCOC[C@@]2(C)Cc2cccc(-n3nccn3)c2)c1` [Example 102, [(R)-3-Methyl-3-(3-[1,2,3]triazol-2-yl-benzyl)-morpholin-4-yl]-(5-methyl-2-[1,2,3]triazol-2-yl-phenyl)-methanone], for which the IC50 worked out at 25 nM in series [1] (setting [4]), 1510 nM in series [2] (setting [5]) and 17 µM in series [3].
For `Cc1cc(C(=O)N2CCOC[C@H]2Cc2cc(-c3ncon3)ccc2F)c(-n2nccn2)cc1C` [Example 179, (4,5-Dimethyl-2-[1,2,3]triazol-2-yl-phenyl)-[(R)-3-(2-fluoro-5-[1,2,4]oxadiazol-3-yl-benzyl)-morpholin-4-yl]-methanone], in that order: 2 nM, 34 nM and 29 µM.
For `Cc1ccc(-n2nccn2)c(C(=O)N2CCOC[C@H]2Cc2cc(-n3nccn3)ccc2F)c1F` [Example 132, (2-Fluoro-3-methyl-6-[1,2,3]triazol-2-yl-phenyl)-[(R)-3-(2-fluoro-5-[1,2,3]triazol-2-yl-benzyl)-morpholin-4-yl]-methanone], the half-inhibitory concentration (IC50) in series [1] (setting [4]) is 8 nM; in series [2] (setting [5]), 1170 nM; in series [3] it was 19 µM.
For `C[C@@H]1COC[C@@H](Cc2cccc(-n3nccn3)c2)N1C(=O)c1ccccc1-n1nccn1` [Example 68, [(3R,5R)-3-Methyl-5-(3-[1,2,3]triazol-2-yl-benzyl)-morpholin-4-yl]-(2-[1,2,3]triazol-2-yl-phenyl)-methanone] the same measures were 16 nM, 1300 nM and 24 µM.
On to `Cc1ccc(C(=O)N2CCOC[C@H]2Cc2cc(-n3nccn3)ccc2C)c(-n2nccn2)c1` [Example 123, [(R)-3-(2-Methyl-5-[1,2,3]triazol-2-yl-benzyl)-morpholin-4-yl]-(4-methyl-2-[1,2,3]triazol-2-yl-phenyl)-methanone], for which the values for the IC50 in series [1], in series [2] and in series [3] were 5 nM, 939 nM and 27 µM, respectively.
`Cc1cccc(C(=O)N2CCOC[C@H]2Cc2cc(-n3nccn3)ccc2F)c1-n1nccn1` [Example 127, [(R)-3-(2-Fluoro-5-[1,2,3]triazol-2-yl-benzyl)-morpholin-4-yl]-(3-methyl-2-[1,2,3]triazol-2-yl-phenyl)-methanone]: the values for the IC50 in series [1] (setting [4]), in series [2] (setting [5]) and in series [3] were 26 nM, 1500 nM and 30 µM, respectively.
Take `O=C(c1cccc(Cl)c1-n1nccn1)N1CCOC[C@H]1Cc1cc(-c2ncccn2)ccc1F` [Example 161, (3-Chloro-2-[1,2,3]triazol-2-yl-phenyl)-[(R)-3-(2-fluoro-5-pyrimidin-2-yl-benzyl)-morpholin-4-yl]-methanone]: the results for the IC50 in series [1] (setting [4]), in series [2] (setting [5]) and in series [3] were 16 nM, 655 nM and 33 µM, respectively.
As for `Cc1ccc(C(=O)N2C[C@@H](C)OC[C@H]2Cc2cccc(-n3nccn3)c2)c(-n2nccn2)c1` [Example 101, [(2R,5R)-2-Methyl-5-(3-[1,2,3]triazol-2-yl-benzyl)-morpholin-4-yl]-(4-methyl-2-[1,2,3]triazol-2-yl-phenyl)-methanone], the IC50 in series [1] was 2 nM; in series [2], 155 nM; in series [3], 9.7 µM.
With `Cc1ccc(-n2nccn2)c(C(=O)N2CCOC[C@H]2Cc2cc(-n3nccn3)ccc2Cl)c1` [Example 125, [(R)-3-(2-Chloro-5-[1,2,3]triazol-2-yl-benzyl)-morpholin-4-yl]-(5-methyl-2-[1,2,3]triazol-2-yl-phenyl)-methanone], the IC50 in series [1] (setting [4]) came to 7 nM; in series [2] (setting [5]), 626 nM; in series [3], 22 µM.
For `O=C(c1ccc(Cl)cc1-n1nccn1)N1CCOC[C@H]1Cc1cc(-c2ncon2)ccc1F` [Example 178, (4-Chloro-2-[1,2,3]triazol-2-yl-phenyl)-[(R)-3-(2-fluoro-5-[1,2,4]oxadiazol-3-yl-benzyl)-morpholin-4-yl]-methanone] the same measures were 2 nM, 165 nM and 24 µM.
As for `Cc1ccc(C(=O)N2[C@H](Cc3cccc(-n4nccn4)c3)COC[C@@H]2C)c(-n2nccn2)c1` [Example 71, [(3S,5R)-3-Methyl-5-(3-[1,2,3]triazol-2-yl-benzyl)-morpholin-4-yl]-(4-methyl-2-[1,2,3]triazol-2-yl-phenyl)-methanone], the IC50 in series [1] amounted to 35 nM; in series [2] it was 2190 nM; in series [3], 14 µM.
Turning to `Cc1ccc(C(=O)N2C[C@@H](C)OC[C@H]2Cc2cc(-c3cccnn3)ccc2F)c(-n2nccn2)c1` [Example 165, [(2R,5R)-5-(2-Fluoro-5-pyridazin-3-yl-benzyl)-2-methyl-morpholin-4-yl]-(4-methyl-2-[1,2,3]triazol-2-yl-phenyl)-methanone], the IC50 in series [1] (setting [4]) turned out to be 14 nM; in series [2] (setting [5]), 1300 nM; in series [3], 20 µM.
For `Cc1cccc(C(=O)N2CCOC[C@H]2Cc2cccc(-c3ncon3)c2)c1-n1nccn1` [Example 83, (3-Methyl-2-[1,2,3]triazol-2-yl-phenyl)-[(R)-3-(3-[1,2,4]oxadiazol-3-yl-benzyl)-morpholin-4-yl]-methanone], the IC50 in series [1] (setting [4]) was found to be 7 nM; in series [3], 25 µM.
On to `O=C(c1ccccc1-n1nccn1)N1CCC[C@H]1Cc1cccc(-n2nccn2)c1` [Ref. 1], for which the IC50 in series [1] (setting [4]) stood at 4 nM; in series [3] it was 5.5 µM.
